Assays:
[1] = tested on: murine embryonic stem cells; experiment: LDH release cytotoxicity test in stem cells; settings: 3 mg ELIP/30 μl gas/ml for 4 hours; H2O2 10 mM for 2 hours
[2] = biological target: tPA activity on porcine blood clot (Homo sapiens, UniProt P00750); experiment: Thrombolytic efficiency of tPA on porcine blood clot in presence of Xe-ELIP or free Xe; settings: 30 minute incorporation with tPA
Method: Neuroprotective combination therapy may minimize the harmful effects of ischemic neuronal damage. […] The thrombolytic effect of tPA was inhibited after 30 minute incorporation with free Xe (Xe saturated solution).

tPA activity on porcine blood clot, sequence (P00750 36-562): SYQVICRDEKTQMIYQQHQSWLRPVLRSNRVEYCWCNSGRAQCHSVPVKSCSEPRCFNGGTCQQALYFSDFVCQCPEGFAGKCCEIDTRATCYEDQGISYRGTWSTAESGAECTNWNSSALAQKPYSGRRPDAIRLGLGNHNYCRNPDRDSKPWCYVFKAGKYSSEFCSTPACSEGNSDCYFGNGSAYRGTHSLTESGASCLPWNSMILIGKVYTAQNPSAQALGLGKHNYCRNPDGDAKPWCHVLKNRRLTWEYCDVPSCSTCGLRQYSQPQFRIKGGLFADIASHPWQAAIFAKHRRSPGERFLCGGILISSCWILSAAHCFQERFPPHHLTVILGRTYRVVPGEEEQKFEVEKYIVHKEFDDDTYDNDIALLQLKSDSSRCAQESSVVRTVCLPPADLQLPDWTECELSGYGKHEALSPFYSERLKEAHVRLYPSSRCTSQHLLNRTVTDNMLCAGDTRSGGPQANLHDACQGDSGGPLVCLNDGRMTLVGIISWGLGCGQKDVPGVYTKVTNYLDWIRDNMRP

Row | thrombolytic effect of tPA [2] | SMILES | LDH release (cytotoxicity) [1]
1 | – | OO [H2O2, Hydrogen Peroxide] | significant LDH release
2 | inhibited | [Xe] [free Xe] | –
